Patent US6677276B1, “Herbicides for tolerant or resistant oil seed rape cultures” (Aventis CropScience GmbH, priority 1998, dated 2004)
Counter-ions that a name gives are not always drawn.

Legend:
Datura stramonium = assay: Oil-seed rape field trial, herbicidal action (Table 2); type: in vivo; conditions: application in the 5-leaf stage, scoring 3 weeks after application
Protocol: (§1) Transgenic oil-seed rape plants with resistance to one or more herbicides (A) were grown together with typical weed plants in the open in 2×5 m plots under natural field conditions; alternatively, the weed population established naturally while the oil-seed rape plants grew. Treatment with the compositions according to the invention and, for control purposes, with separate application of the active ingredients of the components alone, was carried out under standard conditions with a plot sprayer at an application rate of 200-300 liters of water per hectare in parallel trials in accordance with the scheme of Table 1, i.e. pre-sowing/pre-emergence, post-sowing/-pre-emergence or post-emergence at the early, medium or late stage.
[…] Damage and development of all aerial plant organs was recorded. The scoring was done using a percentage scale (100% activity=all plants dead; 50% activity=50% of the plants and green plant organs dead; 0% activity=no discernible effect=like control plot). The score values of in each case 4 plots were averaged.

Matricaria chamomita = assay: Field trial, herbicidal action (Table 4); type: in vivo; conditions: post-emergence application in the 4-leaf stage, scoring 28 days after post-emergence application
Protocol: as §1
(§2) At 2, 4, 6 and 8 week intervals after application, the herbicidal activity of the active ingredients or active ingredient mixtures were scored visually by comparing the treated plots with untreated control plots. Damage and development of all aerial plant organs was recorded. The scoring was done using a percentage scale (100% activity=all plants dead; 50% activity=50% of the plants and green plant organs dead; 0% activity=no discernible effect=like control plot). The score values of in each case 4 plots were averaged.

Cirsium arvense = assay: Field trial, herbicidal action (Table 5); type: in vivo; conditions: application in the 4-leaf stage, scoring 15 days after application
Protocol: as §1, §2

Chenopodium album = assay: Field trial, herbicidal action (Table 5); type: in vivo; conditions: application in the 4-leaf stage, scoring 15 days after application
Protocol: as §1, §2

Oil-seed rape LL = assay: Field trial, crop plant tolerance; type: in vivo, Liberty-Link oil-seed rape; conditions: crop damage
Protocol: Transgenic oil-seed rape plants with resistance to one or more herbicides (A) were grown together with typical weed plants in the open in 2×5 m plots under natural field conditions; alternatively, the weed population established naturally while the oil-seed rape plants grew.
Damage and development of all aerial plant organs was recorded. […] The score values of in each case 4 plots were averaged.

Galium aparine = assay: Oil-seed rape field trial, herbicidal action (Table 3); type: in vivo; conditions: application in the 4-5 leaf stage, scoring 36 days after application
Protocol: as §1, §2

Structure (SMILES): Cc1cccc(C)c1N(Cn1cccn1)C(=O)CCl [(B1.1), 2-chloro-N-(2,6-dimethylphenyl)-N-(1H-pyrazol-1-ylmethyl)acetanilide]
- Herbicidal action (%) against Datura stramonium (Datura stramonium; 600 g of A.S./ha): 40%
- Herbicidal action (%) against Datura stramonium (Datura stramonium; 1200 g of A.S./ha): 93%

Structure (SMILES): Cc1cnc2c(C(=O)O)c(Cl)ccc2c1 [(B2.1), 7-chloro-3-methylquinoline-8-carboxylic acid]
- Herbicidal action % against Matricaria chamomita (Matricaria chamomita; 300 g of A.S./ha): 50%

Structure (SMILES): CCOc1nc(NC)nc(NC(=O)NS(=O)(=O)c2ccccc2C(=O)OC)n1 [(B2.4), methyl 2-{N-[N-(4-ethyox-6-methylamino-1,3,5-triazin-2-yl)aminocarbonyl]aminosulfonyl}benzoate]
- Herbicidal action (%) against Cirsium arvense (Cirsium arvense; 15 g of A.S./ha): 0%
- Herbicidal action (%) against Chenopodium album (Chenopodium album; 15 g of A.S./ha): 30%
- Oil-seed rape LL (Oil-seed rape LL; 15 g of A.S./ha, 4-leaf stage, scoring 15 days after application): 0%

Structure (SMILES): CP(=O)(O)CCC(N)C(=O)O (stereo not shown) [(A1.2), glufosinate monoammonium salt]
- Herbicidal action (%) against Galium aparine (Galium aparine; 125 g of A.S./ha): 15%
- Herbicidal action (%) against Galium aparine (Galium aparine; 250 g of A.S./ha): 41%
- Herbicidal action (%) against Galium aparine (Galium aparine; 500 g of A.S./ha): 63%
- Herbicidal action (%) against Datura stramonium (Datura stramonium; 600 g of A.S./ha): 90%
- Herbicidal action (%) against Cirsium arvense (Cirsium arvense; 230 g of A.S./ha): 85%
- Herbicidal action (%) against Cirsium arvense (Cirsium arvense; 350 g of A.S./ha): 97%
- Herbicidal action (%) against Chenopodium album (Chenopodium album; 230 g of A.S./ha): 90%
- Herbicidal action % against Matricaria chamomita (Matricaria chamomita; 125 g of A.S./ha): 10%
- Herbicidal action % against Matricaria chamomita (Matricaria chamomita; 250 g of A.S./ha): 35%
- Herbicidal action % against Matricaria chamomita (Matricaria chamomita; 500 g of A.S./ha): 65%
- Oil-seed rape LL (Oil-seed rape LL; 125 g of A.S./ha, 4-5 leaf stage, scoring 36 days after application): 0%
- Oil-seed rape LL (Oil-seed rape LL; 230 g of A.S./ha, 4-leaf stage, scoring 15 days after application): 0%
- Oil-seed rape LL (Oil-seed rape LL; 250 g of A.S./ha, 4-5 leaf stage, scoring 36 days after application): 0%
- Oil-seed rape LL (Oil-seed rape LL; 350 g of A.S./ha, 4-leaf stage, scoring 15 days after application): 0%
- Oil-seed rape LL (Oil-seed rape LL; 500 g of A.S./ha, 4-5 leaf stage, scoring 36 days after application): 3%

Structure (SMILES): CCCCCCCCSC(=O)Oc1cc(Cl)nnc1-c1ccccc1 [(B2.3), O-(6-chloro-3-phenylpyridazin-4-yl) S-octyl thiocarbonate]
- Herbicidal action % against Matricaria chamomita (Matricaria chamomita; 600 g of A.S./ha): 60%

Structure (SMILES): O=C(O)c1nc(Cl)ccc1Cl [(B2.2), 3,6-dichloropyridine-2-carboxylic acid]
- Herbicidal action (%) against Cirsium arvense (Cirsium arvense; 90 g of A.S./ha): 85%
- Herbicidal action (%) against Chenopodium album (Chenopodium album; 90 g of A.S./ha): 50%
- Oil-seed rape LL (Oil-seed rape LL; 90 g of A.S./ha, 4-leaf stage, scoring 15 days after application): 0%
